For 24 compounds, Activity and viability results are on record in ChEMBL document CHEMBL4052687, “Synthesis of MeON-neoglycosides of digoxigenin with 6-deoxy- and 2,6-dideoxy-d-glucose derivatives and their anticancer activity” (2017).

The source made the active and inactive calls. The calls are words filed in the database; no cut-off is given here. Bounds are passed on as bounds.

In assay [1] the target is Nuclear receptor subfamily 4immunitygroup A member 1 (Homo sapiens) (UniProt P22736). The assay is described as follows: Induction of Nur77 protein translocation from nucleus to cytoplasm in human NCI-H460 cells at 20 nM incubated for 3 hrs by immunofluorescence microscopy. The format is cell-based.
Assay [2] deals with NCI-H460. The assay is described as follows: Cytotoxicity in human NCI-H460 cells assessed as cell viability at 50 nM incubated for 48 hrs by MTT assay. The format is functional. The settings on record: NCI-H460, 48 h, read-out: Activity. A general note: Tetrazolium assays rely on reduction of a dye to a coloured formazan, in cell work by metabolically active cells.
For assay [3], the system named is NCI-H460. Nature of the assay: Induction of Nur77 protein expression in human NCI-H460 cells at 20 nM incubated for 3 hrs by Western blot method relative to digoxin. The format is functional, cell-based.

Nuclear receptor subfamily 4immunitygroup A member 1 (Homo sapiens), sequence (P22736 whole entry): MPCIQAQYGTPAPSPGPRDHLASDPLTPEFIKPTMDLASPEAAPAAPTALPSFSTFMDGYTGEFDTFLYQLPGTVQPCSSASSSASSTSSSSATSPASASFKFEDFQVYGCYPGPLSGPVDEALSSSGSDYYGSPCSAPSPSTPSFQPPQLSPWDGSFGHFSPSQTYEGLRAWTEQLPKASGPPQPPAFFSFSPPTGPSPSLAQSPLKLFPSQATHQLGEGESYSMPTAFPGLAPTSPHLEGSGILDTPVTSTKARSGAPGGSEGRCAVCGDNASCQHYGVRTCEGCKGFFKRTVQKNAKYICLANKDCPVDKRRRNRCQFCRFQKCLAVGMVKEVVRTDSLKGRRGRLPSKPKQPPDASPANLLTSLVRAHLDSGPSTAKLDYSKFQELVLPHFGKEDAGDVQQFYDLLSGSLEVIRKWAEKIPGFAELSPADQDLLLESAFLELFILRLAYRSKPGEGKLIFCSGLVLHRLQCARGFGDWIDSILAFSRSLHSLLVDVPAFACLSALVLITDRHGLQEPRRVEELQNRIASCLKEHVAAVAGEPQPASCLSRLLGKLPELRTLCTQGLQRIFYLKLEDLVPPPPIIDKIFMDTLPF

As for `CO[C@@H]1[C@@H](O)[C@H](OC)[C@@H](C)O[C@H]1N(OC)[C@@H]1CC[C@@]2(C)[C@H](CC[C@@H]3[C@@H]2C[C@@H](O)[C@]2(C)[C@@H](C4=CC(=O)OC4)CC[C@]32O)C1`, in assay [1], the outcome was Active. Also, in the assay with NCI-H460 [2], the viability at 0.05 µM is greater than 90%.
Regarding `CO[C@@H]1[C@@H](O)[C@H](OC)[C@@H](C)O[C@H]1N(OC)[C@H]1CC[C@@]2(C)[C@H](CC[C@@H]3[C@@H]2C[C@@H](O)[C@]2(C)[C@@H](C4=CC(=O)OC4)CC[C@]32O)C1`, the outcome (in the assay with NCI-H460 [3]; in assay [1]) was Active. Also, the viability at 0.05 µM in the assay on NCI-H460 [2] was greater than 90%.
Take `CO[C@@H]1[C@@H](O)[C@H](N(OC)[C@H]2CC[C@@]3(C)[C@H](CC[C@@H]4[C@@H]3C[C@@H](O)[C@]3(C)[C@@H](C5=CC(=O)OC5)CC[C@]43O)C2)O[C@H](C)[C@H]1OC`: the viability at 0.05 µM in the assay on NCI-H460 [2] was greater than 90%.
For the compound `CO[C@@H]1C[C@H](N(OC)[C@@H]2CC[C@@]3(C)[C@H](CC[C@@H]4[C@@H]3C[C@@H](O)[C@]3(C)[C@@H](C5=CC(=O)OC5)CC[C@]43O)C2)O[C@H](C)[C@H]1O`, the outcome in assay [1] was Active. For the same compound, the viability at 0.05 µM with NCI-H460 [2] is greater than 90%.
On the same counts, the results for `CO[C@@H]1[C@@H](O)[C@H](N(OC)[C@H]2CC[C@@]3(C)[C@H](CC[C@@H]4[C@@H]3C[C@@H](O)[C@]3(C)[C@@H](C5=CC(=O)OC5)CC[C@]43O)C2)O[C@H](C)[C@H]1O` are “Active” and greater than 90%.
As for `CO[C@@H]1[C@@H](O)[C@H](N(OC)[C@@H]2CC[C@@]3(C)[C@H](CC[C@@H]4[C@@H]3C[C@@H](O)[C@]3(C)[C@@H](C5=CC(=O)OC5)CC[C@]43O)C2)O[C@H](C)[C@H]1O`, the viability at 0.05 µM in the assay on NCI-H460 [2] is greater than 90%.
Same read-out and setting: then `CO[C@@H]1[C@@H](OC)[C@H](O)[C@@H](C)O[C@H]1N(OC)[C@H]1CC[C@@]2(C)[C@H](CC[C@@H]3[C@@H]2C[C@@H](O)[C@]2(C)[C@@H](C4=CC(=O)OC4)CC[C@]32O)C1`, with greater than 90%; and `CON([C@H]1CC[C@@]2(C)[C@H](CC[C@@H]3[C@@H]2C[C@@H](O)[C@]2(C)[C@@H](C4=CC(=O)OC4)CC[C@]32O)C1)[C@@H]1O[C@H](CO)[C@@H](O)[C@H](O)[C@H]1O`, with greater than 90%; and `CON([C@H]1CC[C@@]2(C)[C@H](CC[C@@H]3[C@@H]2C[C@@H](O)[C@]2(C)[C@@H](C4=CC(=O)OC4)CC[C@]32O)C1)[C@@H]1O[C@H](C)[C@@H](O)[C@H](O)[C@H]1O`, with greater than 90%.
For `CO[C@H]1[C@H](O)[C@@H](O)[C@H](N(OC)[C@@H]2CC[C@@]3(C)[C@H](CC[C@@H]4[C@@H]3C[C@@H](O)[C@]3(C)[C@@H](C5=CC(=O)OC5)CC[C@]43O)C2)O[C@@H]1C`, the viability at 0.05 µM with NCI-H460 [2] was greater than 90%.
`CON[C@@H]1CC[C@@]2(C)[C@H](CC[C@@H]3[C@@H]2C[C@@H](O)[C@]2(C)[C@@H](C4=CC(=O)OC4)CC[C@]32O)C1`: the outcome in the assay on NCI-H460 [3] was inactive.
Consider `CO[C@@H]1[C@@H](O)[C@H](O)[C@@H](C)O[C@H]1N(OC)[C@@H]1CC[C@@]2(C)[C@H](CC[C@@H]3[C@@H]2C[C@@H](O)[C@]2(C)[C@@H](C4=CC(=O)OC4)CC[C@]32O)C1`, for which the outcome with NCI-H460 [3] was Active. The viability at 0.05 µM in the assay on NCI-H460 [2] was greater than 90%.
As for `CO[C@@H]1[C@@H](O)[C@H](N(OC)[C@@H]2CC[C@@]3(C)[C@H](CC[C@@H]4[C@@H]3C[C@@H](O)[C@]3(C)[C@@H](C5=CC(=O)OC5)CC[C@]43O)C2)O[C@H](C)[C@H]1OC`, the outcome in assay [1] was Active. Moreover, in the assay with NCI-H460 [2], the viability at 0.05 µM is greater than 90%.
In the case of `CON([C@@H]1CC[C@@]2(C)[C@H](CC[C@@H]3[C@@H]2C[C@@H](O)[C@]2(C)[C@@H](C4=CC(=O)OC4)CC[C@]32O)C1)[C@@H]1O[C@H](C)[C@@H](O)[C@H](O)[C@H]1O`, the result in the assay with NCI-H460 [3] was Active. The viability at 0.05 µM in the assay with NCI-H460 [2] was greater than 90%.
In the case of `CON[C@H]1CC[C@@]2(C)[C@H](CC[C@@H]3[C@@H]2C[C@@H](O)[C@]2(C)[C@@H](C4=CC(=O)OC4)CC[C@]32O)C1`, the result in the assay on NCI-H460 [3] was inactive.
`CON([C@@H]1CC[C@@]2(C)[C@H](CC[C@@H]3[C@@H]2C[C@@H](O)[C@]2(C)[C@@H](C4=CC(=O)OC4)CC[C@]32O)C1)[C@H]1O[C@@H](CO)[C@H](O)[C@@H](O)[C@@H]1O`: the result in the assay with NCI-H460 [3] was Active. The viability at 0.05 µM in the assay with NCI-H460 [2] was greater than 90%.
Consider `CON([C@@H]1CC[C@@]2(C)[C@H](CC[C@@H]3[C@@H]2C[C@@H](O)[C@]2(C)[C@@H](C4=CC(=O)OC4)CC[C@]32O)C1)[C@@H]1O[C@H](CO)[C@@H](O)[C@H](O)[C@H]1O`, for which the result in assay [1] was Active. Further, the viability at 0.05 µM in the assay with NCI-H460 [2] is greater than 90%.
Turning to `CO[C@@H]1[C@@H](C)O[C@@H](N(OC)[C@@H]2CC[C@@]3(C)[C@H](CC[C@@H]4[C@@H]3C[C@@H](O)[C@]3(C)[C@@H](C5=CC(=O)OC5)CC[C@]43O)C2)C[C@H]1OC`, the viability at 0.05 µM in the assay with NCI-H460 [2] is greater than 90%.
Regarding `CO[C@@H]1[C@@H](OC)[C@H](O)[C@@H](C)O[C@H]1N(OC)[C@@H]1CC[C@@]2(C)[C@H](CC[C@@H]3[C@@H]2C[C@@H](O)[C@]2(C)[C@@H](C4=CC(=O)OC4)CC[C@]32O)C1`, in assay [1], the result was Active. In the assay with NCI-H460 [2], the viability at 0.05 µM was greater than 90%.
Turning to `CO[C@@H]1[C@@H](O)[C@H](O)[C@@H](C)O[C@H]1N(OC)[C@H]1CC[C@@]2(C)[C@H](CC[C@@H]3[C@@H]2C[C@@H](O)[C@]2(C)[C@@H](C4=CC(=O)OC4)CC[C@]32O)C1`, the viability at 0.05 µM with NCI-H460 [2] is greater than 90%.
Turning to `CON([C@H]1CC[C@@]2(C)[C@H](CC[C@@H]3[C@@H]2C[C@@H](O)[C@]2(C)[C@@H](C4=CC(=O)OC4)CC[C@]32O)C1)[C@H]1O[C@@H](CO)[C@H](O)[C@@H](O)[C@@H]1O`, the outcome (in the assay with NCI-H460 [3]; in assay [1]) was Active. Moreover, the viability at 0.05 µM in the assay with NCI-H460 [2] was greater than 90%.
Consider `CO[C@@H]1[C@@H](C)O[C@@H](N(OC)[C@H]2CC[C@@]3(C)[C@H](CC[C@@H]4[C@@H]3C[C@@H](O)[C@]3(C)[C@@H](C5=CC(=O)OC5)CC[C@]43O)C2)C[C@H]1OC`, for which, in the assay with NCI-H460 [2], the viability at 0.05 µM was greater than 90%.
Still for that read-out and setting: then `CO[C@@H]1C[C@H](N(OC)[C@H]2CC[C@@]3(C)[C@H](CC[C@@H]4[C@@H]3C[C@@H](O)[C@]3(C)[C@@H](C5=CC(=O)OC5)CC[C@]43O)C2)O[C@H](C)[C@H]1O`, with greater than 90%; and `CO[C@H]1[C@H](O)[C@@H](O)[C@H](N(OC)[C@H]2CC[C@@]3(C)[C@H](CC[C@@H]4[C@@H]3C[C@@H](O)[C@]3(C)[C@@H](C5=CC(=O)OC5)CC[C@]43O)C2)O[C@@H]1C`, with greater than 90%.
